# In PubChem BioAssay (NCI):
#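 In this assay, cells in 96-well plates receive the compound at five concentrations for 48 hours. Endpoints are linearly interpolated between the surrounding concentrations. GI50 is the concentration that inhibits growth by half. TGI: concentration producing complete growth inhibition.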
# Tests used:
# Experiment in all cases: NCI tumour cell line growth inhibition, 48 h
# CCRF-CEM leukemia = tested on: CCRF-CEM leukemia
# SW-620 colon = tested on: SW-620 colon
# MDA-N = tested on: MDA-N
# NCI-H460 lung = tested on: NCI-H460 lung
# NCI-H23 lung = tested on: NCI-H23 lung
# SK-MEL-5 melanoma = tested on: SK-MEL-5 melanoma
# U251 CNS = tested on: U251 CNS
# NCI-H226 lung = tested on: NCI-H226 lung
# HCT-15 colon = tested on: HCT-15 colon
# RXF 393 renal = tested on: RXF 393 renal
# A549 NSCLC = tested on: A549 NSCLC
# OVCAR-3 ovarian = tested on: OVCAR-3 ovarian
# XF 498 CNS = tested on: XF 498 CNS
# HL-60(TB) leukemia = tested on: HL-60(TB) leukemia
# EKVX NSCLC = tested on: EKVX NSCLC
# RPMI-8226 leukemia = tested on: RPMI-8226 leukemia
# MALME-3M melanoma = tested on: MALME-3M melanoma
# SF-539 CNS = tested on: SF-539 CNS
# SK-MEL-2 melanoma = tested on: SK-MEL-2 melanoma
SMILES,TGI (CCRF-CEM leukemia) [µM],TGI (SW-620 colon) [µM],TGI (MDA-N) [µM],TGI (NCI-H460 lung) [µM],TGI (NCI-H23 lung) [µM],TGI (SK-MEL-5 melanoma) [µM],TGI (U251 CNS) [µM],TGI (NCI-H226 lung) [µM],TGI (HCT-15 colon) [µM],TGI (RXF 393 renal) [µM],TGI (A549 NSCLC) [µM],TGI (OVCAR-3 ovarian) [µM],TGI (XF 498 CNS) [µM],TGI (HL-60(TB) leukemia) [µM],TGI (EKVX NSCLC) [µM],TGI (RPMI-8226 leukemia) [µM],TGI (MALME-3M melanoma) [µM],TGI (SF-539 CNS) [µM],TGI (SK-MEL-2 melanoma) [µM],GI50 (HL-60(TB) leukemia) [µM]
C=CCNc1ccc(C)cc1,> 100,> 100,> 100,> 100,> 100,> 100,> 100,> 100,> 100,> 100,> 100,> 100,,,,,,,,
CCOCNC(=O)N(COCC)COCC,> 100,> 100,,,,,,> 100,> 100,,> 100,> 100,> 100,> 100,> 100,> 100,> 100,> 100,> 100,
O=[N+]([O-])c1ccccc1N=Nc1c(O)sc2ccccc12,> 100,> 100,> 100,> 100,> 100,> 100,> 100,> 100,> 100,,> 100,> 100,,> 100,> 100,> 100,> 100,> 100,> 100,
NCCc1nc(-c2nc(C(=O)O)cs2)cs1,> 100,> 100,> 100,> 100,> 100,> 100,> 100,,> 100,> 100,> 100,> 100,,> 100,> 100,> 100,> 100,> 100,> 100,
COc1ccc(-c2c(C#N)c(NC(=S)NC(=O)c3ccccc3)nc3c2CCCC3)cc1OC,> 100,> 100,> 100,> 100,> 100,> 100,> 100,,> 100,68.1,> 100,> 100,,> 100,70.4,> 100,> 100,> 100,,
CN(CCCNc1ccc2ncn3c4ccccc4c(=O)c1c23)CCCN1C(=O)c2cccc3cc([N+](=O)[O-])cc(c23)C1=O,0.973,,2.01,0.0224,1.5,,0.133,1.55,0.326,2.14,0.126,2.29,,,2.16,,,0.149,6.88,0.191
